# Key:
# saffron ovary [1] = assay: Tissue culture of saffron ovary in MS medium with alanine; visual rating of stigma-like tissue (Example 3); type: cell-based; conditions: BA 10 ppm, 7 weeks, scale 0-10
# Description: (§1) The relative amount of the stigma-like tissue was visually determined and rated according to an 11-part divided scale, taking an amount corresponding to the amount of naturally-occurring three stigmata containing saffron pigment as 10, nil as 0, and equally dividing the interval therebetween.
# (§2) The relative color density of the stigma-like tissue was visually determined, and rated according to an 11-part divided scale, taking a density corresponding to the density of a naturally-occurring stigma containing saffron pigment as 10 and colorlessness as 0, and equally dividing the interval therebetween.
# (§3) Guaran powder was then added to the medium in a concentration of 0.2% by weight. The medium was sterilized at 120° C. for 20 minutes in an autoclave. The sterilized medium was aloquated into sterile plastic plates having a diameter of 55 mm, followed by cooling to solidify.
# (§4) A bud of a saffron flower before opening was harvested, sterilized by soaking in a 0.5 vol% sodium hypochlorite aqueous solution for 10 minutes, and washed with water. The ovary portion of the bud was taken out and cut to pieces of about 8 mm. Each cut piece was seeded on each of the above-prepared solid media.
# (§5) The ovary was subjected to static culture at 25° C. in a dark room. Production of a stigma-like tissue was recognized in the cultures in about 4 weeks at the soonest. In 7 weeks, the stigma-like tissue grew and assumed a red color, indicating considerable production of the saffron pigment.
# (§6) After 7 weeks of culturing, the tissue cultures were visually observed and evaluated in the same manner as in Example 1.
# saffron ovary [2] = assay: Tissue culture of saffron ovary in Linsmaier-Skoog medium with alanine; visual rating of stigma-like tissue (Example 4); type: cell-based; conditions: Ki 2 ppm, scale 0-10
# Description: as §1, §2, §3, §4, §5, §6
# (§7) A saffron ovary was cultured in the same manner as in Example 3, except for replacing the MS medium with a Linsmaier-Skoog medium to which Ki, NAA and alanine were added in the concentrations shown in Table 11.
# [3] = test system: corolla tube of a saffron; assay: Tissue culture of saffron corolla tube with alanine; visual rating of stigma-like tissue (Example 5); type: cell-based; conditions: Ki 2 ppm, Linsmaier-Skoog medium, scale 0-10
# Description: as §1, §2, §3, §4, §6, §7
# The procedure of Example 4 was repeated except for replacing the ovary with a corolla tube of a saffron.
# style of saffron = assay: Tissue culture of saffron style with alanine; visual rating of stigma-like tissue (Example 6); type: cell-based; conditions: Ki 2 ppm, Linsmaier-Skoog medium, scale 0-10
# Description: as §1, §2, §3, §4, §6, §7
# The procedure of Example 4 was repeated except for replacing the overy with a style of saffron.
# stigma of saffran = assay: Tissue culture of saffron stigma with alanine; visual rating of stigma-like tissue (Example 7); type: cell-based; conditions: Ki 2 ppm, Linsmaier-Skoog medium, scale 0-10
# Description: as §1, §2, §3, §4, §6, §7
# The procedure of Example 4 was repeated except for replacing the ovary with a stigma of saffran.
# [4] = test system: female organ and/or corolla tube of saffron; assay: Tissue culture of female organ and/or corolla tube of saffron in the presence of alanine; type: cell-based; conditions: compared with cultures in the absence of alanine
# Description: In this embodiment, a female organ and/or a corolla tube of a saffron flower is tissue-cultured in a medium containing a plant hormone and alanine in a bright or dark room.
# Female organs and/or corolla tubes to be cultured are harvested from saffron flowers before opening, i.e., flowers in the bud and subjected to tissue culture in the manner as in the first embodiment by using a medium containing alanine to produce and proliferate the stigma-like tissue. When using female organs and/or corolla tubes harvested after flower opening, the amount of the stigma-like tissue produced tends to be reduced.
# In cases where female organs and/or corolla tubes are cultured in the second embodiment, the culture medium should further contain alanine to accelerate the production of the stigma-like tissue. Alanine is preferably added to a medium in concentrations of from about 0.005 to 10g/l, more preferably from 0.1 to 10g/l. The alanine to be added may be any of D- or L-optical isomers and a racemate.
# Tissue culture according to the present invention can be performed either by static culture using a solid medium or by shake culture using a liquid medium. The solid medium includes a medium containing about 0.8% by weight of agar and a Murashige-Skoog medium containing 0.2% by weight of guaran. The culturing may be in either a bright room or a dark room. […]
# [5] = test system: undifferentiated callus of saffron bulb; conditions: undifferentiated callus culture of saffron bulb; symposium 1987; cited from earlier work
smiles,measurement,setting,value
"C[C@H](N)C(=O)O (racemic) [Alanine, alanine]",Relative Color Density of Stigma-Like Tissue Containing Saffron Pigment,"saffron ovary [1]; alanine 0.005 g/l, NAA 0.1 ppm",8
same,Relative Production of Stigma-Like Tissue Containing Saffron Pigment,"saffron ovary [1]; alanine 0.005 g/l, NAA 0.1 ppm",4
same,Relative Color Density of Stigma-Like Tissue Containing Saffron Pigment,"saffron ovary [1]; alanine 0.005 g/l, NAA 1.0 ppm",8
same,Relative Production of Stigma-Like Tissue Containing Saffron Pigment,"saffron ovary [1]; alanine 0.005 g/l, NAA 1.0 ppm",4
same,Relative Color Density of Stigma-Like Tissue Containing Saffron Pigment,"saffron ovary [1]; alanine 0.01 g/l, NAA 0.1 ppm",8
same,Relative Production of Stigma-Like Tissue Containing Saffron Pigment,"saffron ovary [1]; alanine 0.01 g/l, NAA 0.1 ppm",5
same,Relative Color Density of Stigma-Like Tissue Containing Saffron Pigment,"saffron ovary [1]; alanine 0.01 g/l, NAA 1.0 ppm",8
same,Relative Production of Stigma-Like Tissue Containing Saffron Pigment,"saffron ovary [1]; alanine 0.01 g/l, NAA 1.0 ppm",5
same,Relative Color Density of Stigma-Like Tissue Containing Saffron Pigment,"saffron ovary [1]; alanine 0.1 g/l, NAA 0.1 ppm",9
same,Relative Production of Stigma-Like Tissue Containing Saffron Pigment,"saffron ovary [1]; alanine 0.1 g/l, NAA 0.1 ppm",5
same,Relative Color Density of Stigma-Like Tissue Containing Saffron Pigment,"saffron ovary [1]; alanine 0.1 g/l, NAA 1.0 ppm",9
same,Relative Production of Stigma-Like Tissue Containing Saffron Pigment,"saffron ovary [1]; alanine 0.1 g/l, NAA 1.0 ppm",6
same,Relative Color Density of Stigma-Like Tissue Containing Saffron Pigment,"saffron ovary [1]; alanine 1.0 g/l, NAA 0.1 ppm",9
same,Relative Production of Stigma-Like Tissue Containing Saffron Pigment,"saffron ovary [1]; alanine 1.0 g/l, NAA 0.1 ppm",7
same,Relative Color Density of Stigma-Like Tissue Containing Saffron Pigment,"saffron ovary [1]; alanine 1.0 g/l, NAA 1.0 ppm",9
same,Relative Production of Stigma-Like Tissue Containing Saffron Pigment,"saffron ovary [1]; alanine 1.0 g/l, NAA 1.0 ppm",8
same,Relative Color Density of Stigma-Like Tissue Containing Saffron Pigment,"saffron ovary [1]; alanine 5.0 g/l, NAA 0.1 ppm",9
same,Relative Production of Stigma-Like Tissue Containing Saffron Pigment,"saffron ovary [1]; alanine 5.0 g/l, NAA 0.1 ppm",6
same,Relative Color Density of Stigma-Like Tissue Containing Saffron Pigment,"saffron ovary [1]; alanine 5.0 g/l, NAA 1.0 ppm",8
same,Relative Production of Stigma-Like Tissue Containing Saffron Pigment,"saffron ovary [1]; alanine 5.0 g/l, NAA 1.0 ppm",6
same,Relative Color Density of Stigma-Like Tissue Containing Saffron Pigment,"saffron ovary [1]; alanine 10.0 g/l, NAA 0.1 ppm",8
same,Relative Production of Stigma-Like Tissue Containing Saffron Pigment,"saffron ovary [1]; alanine 10.0 g/l, NAA 0.1 ppm",5
same,Relative Color Density of Stigma-Like Tissue Containing Saffron Pigment,"saffron ovary [1]; alanine 10.0 g/l, NAA 1.0 ppm",8
same,Relative Production of Stigma-Like Tissue Containing Saffron Pigment,"saffron ovary [1]; alanine 10.0 g/l, NAA 1.0 ppm",5
same,Relative Color Density of Stigma-Like Tissue Containing Saffron Pigment,"saffron ovary [1]; alanine 20.0 g/l, NAA 0.1 ppm",8
same,Relative Production of Stigma-Like Tissue Containing Saffron Pigment,"saffron ovary [1]; alanine 20.0 g/l, NAA 0.1 ppm",3
same,Relative Color Density of Stigma-Like Tissue Containing Saffron Pigment,"saffron ovary [1]; alanine 20.0 g/l, NAA 1.0 ppm",7
same,Relative Production of Stigma-Like Tissue Containing Saffron Pigment,"saffron ovary [1]; alanine 20.0 g/l, NAA 1.0 ppm",4
same,Relative Color Density of Stigma-Like Tissue Containing Saffron Pigment,"saffron ovary [2]; alanine 0.01 g/l, NAA 0.1 ppm",5
same,Relative Production of Stigma-Like Tissue Containing Saffron Pigment,"saffron ovary [2]; alanine 0.01 g/l, NAA 0.1 ppm",3
same,Relative Color Density of Stigma-Like Tissue Containing Saffron Pigment,"saffron ovary [2]; alanine 0.01 g/l, NAA 1.0 ppm",6
same,Relative Production of Stigma-Like Tissue Containing Saffron Pigment,"saffron ovary [2]; alanine 0.01 g/l, NAA 1.0 ppm",3
same,Relative Color Density of Stigma-Like Tissue Containing Saffron Pigment,"saffron ovary [2]; alanine 0.1 g/l, NAA 0.1 ppm",6
same,Relative Production of Stigma-Like Tissue Containing Saffron Pigment,"saffron ovary [2]; alanine 0.1 g/l, NAA 0.1 ppm",4
same,Relative Color Density of Stigma-Like Tissue Containing Saffron Pigment,"saffron ovary [2]; alanine 0.1 g/l, NAA 1.0 ppm",6
same,Relative Production of Stigma-Like Tissue Containing Saffron Pigment,"saffron ovary [2]; alanine 0.1 g/l, NAA 1.0 ppm",4
same,Relative Color Density of Stigma-Like Tissue Containing Saffron Pigment,"saffron ovary [2]; alanine 1.0 g/l, NAA 0.1 ppm",7
same,Relative Production of Stigma-Like Tissue Containing Saffron Pigment,"saffron ovary [2]; alanine 1.0 g/l, NAA 0.1 ppm",5
same,Relative Color Density of Stigma-Like Tissue Containing Saffron Pigment,"saffron ovary [2]; alanine 1.0 g/l, NAA 1.0 ppm",7
same,Relative Production of Stigma-Like Tissue Containing Saffron Pigment,"saffron ovary [2]; alanine 1.0 g/l, NAA 1.0 ppm",5
same,Relative Color Density of Stigma-Like Tissue Containing Saffron Pigment,"saffron ovary [2]; alanine 5.0 g/l, NAA 0.1 ppm",6
same,Relative Production of Stigma-Like Tissue Containing Saffron Pigment,"saffron ovary [2]; alanine 5.0 g/l, NAA 0.1 ppm",5
same,Relative Color Density of Stigma-Like Tissue Containing Saffron Pigment,"saffron ovary [2]; alanine 5.0 g/l, NAA 1.0 ppm",7
same,Relative Production of Stigma-Like Tissue Containing Saffron Pigment,"saffron ovary [2]; alanine 5.0 g/l, NAA 1.0 ppm",5
same,Relative Color Density of Stigma-Like Tissue Containing Saffron Pigment,"[3]; alanine 0.01 g/l, NAA 0.1 ppm",6
same,Relative Production of Stigma-Like Tissue Containing Saffron Pigment,"[3]; alanine 0.01 g/l, NAA 0.1 ppm",4
same,Relative Color Density of Stigma-Like Tissue Containing Saffron Pigment,"[3]; alanine 0.01 g/l, NAA 1.0 ppm",6
same,Relative Production of Stigma-Like Tissue Containing Saffron Pigment,"[3]; alanine 0.01 g/l, NAA 1.0 ppm",4
same,Relative Color Density of Stigma-Like Tissue Containing Saffron Pigment,"[3]; alanine 0.1 g/l, NAA 0.1 ppm",7
same,Relative Production of Stigma-Like Tissue Containing Saffron Pigment,"[3]; alanine 0.1 g/l, NAA 0.1 ppm",5
same,Relative Color Density of Stigma-Like Tissue Containing Saffron Pigment,"[3]; alanine 0.1 g/l, NAA 1.0 ppm",7
same,Relative Production of Stigma-Like Tissue Containing Saffron Pigment,"[3]; alanine 0.1 g/l, NAA 1.0 ppm",5
same,Relative Color Density of Stigma-Like Tissue Containing Saffron Pigment,"[3]; alanine 1.0 g/l, NAA 0.1 ppm",7
same,Relative Production of Stigma-Like Tissue Containing Saffron Pigment,"[3]; alanine 1.0 g/l, NAA 0.1 ppm",6
same,Relative Color Density of Stigma-Like Tissue Containing Saffron Pigment,"[3]; alanine 1.0 g/l, NAA 1.0 ppm",7
same,Relative Production of Stigma-Like Tissue Containing Saffron Pigment,"[3]; alanine 1.0 g/l, NAA 1.0 ppm",6
same,Relative Color Density of Stigma-Like Tissue Containing Saffron Pigment,"[3]; alanine 5.0 g/l, NAA 0.1 ppm",7
same,Relative Production of Stigma-Like Tissue Containing Saffron Pigment,"[3]; alanine 5.0 g/l, NAA 0.1 ppm",6
same,Relative Color Density of Stigma-Like Tissue Containing Saffron Pigment,"[3]; alanine 5.0 g/l, NAA 1.0 ppm",7
same,Relative Production of Stigma-Like Tissue Containing Saffron Pigment,"[3]; alanine 5.0 g/l, NAA 1.0 ppm",6
same,Relative Density of Stigma-Like Tissue Containing Saffron Pigment,"style of saffron; alanine 0.1 g/l, NAA 0.1 ppm",6
same,Relative Production of Stigma-Like Tissue Containing Saffron Pigment,"style of saffron; alanine 0.1 g/l, NAA 0.1 ppm",4
same,Relative Density of Stigma-Like Tissue Containing Saffron Pigment,"style of saffron; alanine 0.1 g/l, NAA 1.0 ppm",7
same,Relative Production of Stigma-Like Tissue Containing Saffron Pigment,"style of saffron; alanine 0.1 g/l, NAA 1.0 ppm",5
same,Relative Density of Stigma-Like Tissue Containing Saffron Pigment,"style of saffron; alanine 1.0 g/l, NAA 0.1 ppm",7
same,Relative Production of Stigma-Like Tissue Containing Saffron Pigment,"style of saffron; alanine 1.0 g/l, NAA 0.1 ppm",5
same,Relative Density of Stigma-Like Tissue Containing Saffron Pigment,"style of saffron; alanine 1.0 g/l, NAA 1.0 ppm",7
same,Relative Production of Stigma-Like Tissue Containing Saffron Pigment,"style of saffron; alanine 1.0 g/l, NAA 1.0 ppm",6
same,Relative Density of Stigma-Like Tissue Containing Saffron Pigment,"style of saffron; alanine 5.0 g/l, NAA 0.1 ppm",7
same,Relative Production of Stigma-Like Tissue Containing Saffron Pigment,"style of saffron; alanine 5.0 g/l, NAA 0.1 ppm",5
same,Relative Density of Stigma-Like Tissue Containing Saffron Pigment,"style of saffron; alanine 5.0 g/l, NAA 1.0 ppm",8
same,Relative Production of Stigma-Like Tissue Containing Saffron Pigment,"style of saffron; alanine 5.0 g/l, NAA 1.0 ppm",6
same,Relative Color Density of Stigma-Like Tissue Containing Saffron Pigment,"stigma of saffran; alanine 0.1 g/l, NAA 0.1 ppm",6
same,Relative Production of Stigma-Like Tissue Containing Saffron Pigment,"stigma of saffran; alanine 0.1 g/l, NAA 0.1 ppm",3
same,Relative Color Density of Stigma-Like Tissue Containing Saffron Pigment,"stigma of saffran; alanine 0.1 g/l, NAA 1.0 ppm",8
same,Relative Production of Stigma-Like Tissue Containing Saffron Pigment,"stigma of saffran; alanine 0.1 g/l, NAA 1.0 ppm",4
same,Relative Color Density of Stigma-Like Tissue Containing Saffron Pigment,"stigma of saffran; alanine 1.0 g/l, NAA 0.1 ppm",8
same,Relative Production of Stigma-Like Tissue Containing Saffron Pigment,"stigma of saffran; alanine 1.0 g/l, NAA 0.1 ppm",4
same,Relative Color Density of Stigma-Like Tissue Containing Saffron Pigment,"stigma of saffran; alanine 1.0 g/l, NAA 1.0 ppm",8
same,Relative Production of Stigma-Like Tissue Containing Saffron Pigment,"stigma of saffran; alanine 1.0 g/l, NAA 1.0 ppm",4
same,Relative Color Density of Stigma-Like Tissue Containing Saffron Pigment,"stigma of saffran; alanine 5.0 g/l, NAA 0.1 ppm",7
same,Relative Production of Stigma-Like Tissue Containing Saffron Pigment,"stigma of saffran; alanine 5.0 g/l, NAA 0.1 ppm",4
same,Relative Color Density of Stigma-Like Tissue Containing Saffron Pigment,"stigma of saffran; alanine 5.0 g/l, NAA 1.0 ppm",7
same,Relative Production of Stigma-Like Tissue Containing Saffron Pigment,"stigma of saffran; alanine 5.0 g/l, NAA 1.0 ppm",4
same,quantities of stigma-like tissue and the pigment,[4],larger quantities of stigma-like tissue and the pigment
same,effect of addition of alanine to the medium,[5],discharge of a red substance into the medium
